Values quoted from earlier work as cited in patent publication US20250214981A1, “COMPOUND AND APPLICATION THEREOF IN PREPARATION OF MEDICINE FOR TREATING ENTEROVIRUS-RELATED DISEASES” (priority 2022, published 2025).

Key:
[1] = system: mammalian cysteine and serine proteases, including cathepsin B, elastase, chymotrypsin, trypsin, thrombin, and calpain
[2] = system: human rhinovirus serotypes
[3] = in vivo

CCOC(=O)/C=C/[C@H](C[C@@H]1CCNC1=O)NC(=O)[C@@H](CC(=O)[C@@H](NC(=O)c1cc(C)on1)C(C)C)Cc1ccc(F)cc1 [AG7088]
inhibitory activity against mammalian cysteine and serine proteases [1]: negligible inhibitory activity | antiviral activity against a variety of human rhinovirus serotypes [2]: significant antiviral activity | bioavailability [3]: low bioavailability
